Assay results published in patent US20230330093A1, “APPLICATION OF NITROGEN-CONTAINING SATURATED HETEROCYCLIC COMPOUND” (SHANGHAI PHARMACEUTICALS HOLDING CO., LTD., priority 2020, published 2023).

Experiments:
cynomolgus monkeys = test: 4-week safety study: serum biochemistry; assay type: in vivo
Protocol: […] (1) Hematological and coagulation index examination were performed using a Bayer ADVIA2120 (Germany) and a Sysmex CA-1500 (Japan). (2) The serum biochemical examination was assessed using a HITACHI 7080 automated analyzer (Japan) and an Easylyte PLUS electrolyte analyzer (MEDICA, America). (3) The 24-h pooled urine of each animal was collected by a tray under each cage. Urinalysis was carried out using Uritest-300 (China). (4) The 24-h pooled faeces of each monkey were collected by a tray under each cage. Fecal occult blood was detected. (5) ACCESS 2 Chemiluminescence immunoassay was used for myocardial troponin (TropI, non-GLP) test.

[1] = 4-week safety study: toxicokinetics (plasma AUC0-24h, Cmax); assay type: in vivo, cynomolgus monkeys
Protocol: Blood samples were obtained on day1 and day26 at 0, 0.5, 1.5, 3, 5, 7 and 24 h after administration. On each occasion, approximately 1.0 mL of blood was drawn from the vein and collected into EDTA-K2 anticoagulant tubes. The blood samples were put on ice and then centrifuged (3500 rpm, 5 min) at 4° C. to obtain plasma samples, which were kept frozen at about −80° C. until analysis. Toxicokinetics determination of the compound of Formula I was conducted at the Institute of Materia Medica, Chinese Academy of Sciences (Shanghai, China).

In the case of COC(=O)NCCCn1nc([C@@H](C)N(C(=O)[C@H]2CNCCO2)C2CC2)c2ccc(C)nc21 [compound of Formula I], the K (cynomolgus monkeys; Male, 20 mg/kg, d0) is reported as 5.1 ± 0.3 mmol/L, the Na (cynomolgus monkeys; Male, 20 mg/kg, d0) is reported as 148.7 ± 2.0 mmol/L and the BUN (cynomolgus monkeys; Male, 20 mg/kg, d14) is reported as 4.8 ± 0.5 mmol/L. It also gave a CHOL (cynomolgus monkeys; Male, 20 mg/kg, d14) of 2.6 ± 0.4 mmol/L, a CPK (cynomolgus monkeys; Male, 20 mg/kg, d14) of 128.2 ± 50.8 U · L^−1 and a CREA (cynomolgus monkeys; Male, 20 mg/kg, d14) of 65 ± 4.3 µM. For the same compound, the K (cynomolgus monkeys; Male, 20 mg/kg, d14) was 4.6 ± 0.3 mmol/L, the Na (cynomolgus monkeys; Male, 20 mg/kg, d14) was 148.7 ± 1.6 mmol/L and the BUN (cynomolgus monkeys; Male, 20 mg/kg, d26) was 5.6 ± 0.3 mmol/L. The CHOL (cynomolgus monkeys; Male, 20 mg/kg, d26) was 2.7 ± 0.5 mmol/L, the CPK (cynomolgus monkeys; Male, 20 mg/kg, d26) was 154.4 ± 21.5 U · L^−1 and the CREA (cynomolgus monkeys; Male, 20 mg/kg, d26) was 64 ± 5.5 µM. For the same compound, the K (cynomolgus monkeys; Male, 20 mg/kg, d26) was 5.4 ± 0.9 mmol/L, the Na (cynomolgus monkeys; Male, 20 mg/kg, d26) was 147.9 ± 1.9 mmol/L and the BUN (cynomolgus monkeys; Male, 20 mg/kg, d 56) was 5.2 ± 0.4 mmol/L. It also gave a CHOL (cynomolgus monkeys; Male, 20 mg/kg, d 56) of 2.6 ± 0.1 mmol/L, a CPK (cynomolgus monkeys; Male, 20 mg/kg, d 56) of 161.0 ± 87.7 U · L^−1 and a CREA (cynomolgus monkeys; Male, 20 mg/kg, d 56) of 64 ± 5.7 µM. It also gave a K (cynomolgus monkeys; Male, 20 mg/kg, d 56) of 5.3 ± 1.1 mmol/L, a Na (cynomolgus monkeys; Male, 20 mg/kg, d 56) of 144.6 ± 1.6 mmol/L and a BUN (cynomolgus monkeys; Male, 100 mg/kg, d0) of 5.7 ± 0.5 mmol/L. For the same compound, the CHOL (cynomolgus monkeys; Male, 100 mg/kg, d0) was 3.6 ± 0.4 mmol/L, the CPK (cynomolgus monkeys; Male, 100 mg/kg, d0) was 161.4 ± 12.3 U · L^−1 and the CREA (cynomolgus monkeys; Male, 100 mg/kg, d0) was 66.6 ± 8.6 µM. The K (cynomolgus monkeys; Male, 100 mg/kg, d0) was 4.8 ± 0.4 mmol/L, the Na (cynomolgus monkeys; Male, 100 mg/kg, d0) was 149.1 ± 2.9 mmol/L and the BUN (cynomolgus monkeys; Male, 100 mg/kg, d14) was 6.1 ± 1.5 mmol/L. It also gave a CHOL (cynomolgus monkeys; Male, 100 mg/kg, d14) of 3.0 ± 0.6 mmol/L, a CPK (cynomolgus monkeys; Male, 100 mg/kg, d14) of 213.4 ± 67.1 U · L^−1 and a CREA (cynomolgus monkeys; Male, 100 mg/kg, d14) of 63 ± 4.1 µM. It also gave a K (cynomolgus monkeys; Male, 100 mg/kg, d14) of 4.8 ± 0.4 mmol/L, a Na (cynomolgus monkeys; Male, 100 mg/kg, d14) of 148.3 ± 2.5 mmol/L and a BUN (cynomolgus monkeys; Male, 100 mg/kg, d26) of 5.9 ± 1.0 mmol/L. The CHOL (cynomolgus monkeys; Male, 100 mg/kg, d26) was 2.8 ± 0.3 mmol/L, the CPK (cynomolgus monkeys; Male, 100 mg/kg, d26) was 179.8 ± 42.1 U · L^−1 and the CREA (cynomolgus monkeys; Male, 100 mg/kg, d26) was 63 ± 8.5 µM. It also gave a K (cynomolgus monkeys; Male, 100 mg/kg, d26) of 5.2 ± 0.2 mmol/L, a Na (cynomolgus monkeys; Male, 100 mg/kg, d26) of 147.1 ± 2.4 mmol/L and a BUN (cynomolgus monkeys; Male, 100 mg/kg, d 56) of 5.7 ± 1.5 mmol/L. The CHOL (cynomolgus monkeys; Male, 100 mg/kg, d 56) was 2.8 ± 0.6 mmol/L, the CPK (cynomolgus monkeys; Male, 100 mg/kg, d 56) was 109.0 ± 9.9 U · L^−1 and the CREA (cynomolgus monkeys; Male, 100 mg/kg, d 56) was 58.5 ± 3.5 µM. The K (cynomolgus monkeys; Male, 100 mg/kg, d 56) was 4.2 ± 0.0 mmol/L, the Na (cynomolgus monkeys; Male, 100 mg/kg, d 56) was 146.5 ± 0.7 mmol/L and the BUN (cynomolgus monkeys; Male, 450 mg/kg, d0) was 5.3 ± 0.6 mmol/L. For the same compound, the CHOL (cynomolgus monkeys; Male, 450 mg/kg, d0) was 3.4 ± 0.5 mmol/L, the CPK (cynomolgus monkeys; Male, 450 mg/kg, d0) was 140.4 ± 44.6 U · L^−1 and the CREA (cynomolgus monkeys; Male, 450 mg/kg, d0) was 68.6 ± 5.1 µM. The K (cynomolgus monkeys; Male, 450 mg/kg, d0) was 5.2 ± 0.8 mmol/L, the Na (cynomolgus monkeys; Male, 450 mg/kg, d0) was 148.4 ± 2.5 mmol/L and the BUN (cynomolgus monkeys; Male, 450 mg/kg, d14) was 11.3 ± 6.7 mmol/L. It also gave a CHOL (cynomolgus monkeys; Male, 450 mg/kg, d14) of 1.8 ± 0.3 mmol/L, a CPK (cynomolgus monkeys; Male, 450 mg/kg, d14) of 290.2 ± 120.0 U · L^−1 and a CREA (cynomolgus monkeys; Male, 450 mg/kg, d14) of 116 ± 74.4 µM. It also gave a K (cynomolgus monkeys; Male, 450 mg/kg, d14) of 5.0 ± 0.2 mmol/L, a Na (cynomolgus monkeys; Male, 450 mg/kg, d14) of 146.4 ± 3.3 mmol/L and a BUN (cynomolgus monkeys; Male, 450 mg/kg, d26) of 10.4 ± 3.1 mmol/L. For the same compound, the CHOL (cynomolgus monkeys; Male, 450 mg/kg, d26) was 1.7 ± 0.3 mmol/L, the CPK (cynomolgus monkeys; Male, 450 mg/kg, d26) was 133.6 ± 44.6 U · L^−1 and the CREA (cynomolgus monkeys; Male, 450 mg/kg, d26) was 79 ± 2.8 µM. It also gave a K (cynomolgus monkeys; Male, 450 mg/kg, d26) of 5.2 ± 0.2 mmol/L, a Na (cynomolgus monkeys; Male, 450 mg/kg, d26) of 144.3 ± 2.2 mmol/L and a BUN (cynomolgus monkeys; Male, 450 mg/kg, d 56) of 5.1 ± 0.0 mmol/L. It also gave a CHOL (cynomolgus monkeys; Male, 450 mg/kg, d 56) of 2.8 ± 0.3 mmol/L, a CPK (cynomolgus monkeys; Male, 450 mg/kg, d 56) of 99.5 ± 7.8 U · L^−1 and a CREA (cynomolgus monkeys; Male, 450 mg/kg, d 56) of 66.5 ± 3.5 µM. For the same compound, the K (cynomolgus monkeys; Male, 450 mg/kg, d 56) was 4.8 ± 0.8 mmol/L, the Na (cynomolgus monkeys; Male, 450 mg/kg, d 56) was 145.3 ± 1.1 mmol/L and the CREA (cynomolgus monkeys; high-dose female that died early on d23, d14 data) was 526 µM. For the same compound, the CHOL (cynomolgus monkeys; high-dose males) was “significantly decreased”, the “Serum Na level” value (cynomolgus monkeys; high-dose males, d26, statistically significant) was “decreased slightly” and the BUN (cynomolgus monkeys; high-dose, both sexes) was “significantly increased”. For the same compound, the CPK (cynomolgus monkeys; high-dose, both sexes) was “significantly increased”, the CREA (cynomolgus monkeys; high-dose, both sexes) was “significantly increased” and the accumulation ([1]; after consecutive 28 days of administration) was “the accumulation was not apparent”. For the same compound, the “Systemic exposure (plasma AUC0-24h and Cmax of parent compound and main metabolite) vs dose” value ([1]; dose range of 20 to 450 mg/kg) was “proportionately greater than the magnitude of the dose increments”.
